The text below walks through data of US12433911B2, “Preparation and storage of liposomal RNA formulations suitable for therapy” (BIONTECH SE, priority 2019, dated 2025).

Data set [1] can be described thus: DOPE and DOPE/DOTMA solubility in ethanol (HPLC). The class given is physicochemical. As to conditions: for DOPE solubility in ethanol comprising 220 mM DOTMA, mM after Filtration: DOTMA/DOPE 66:33 in ethanol abs. As to the method:
DOPE and DOPE/DOTMA solubility in ethanol was investigated by preparing 300 mM DOPE or 330 mM DOPE/DOTMA (66:33) solutions in ethanol. The lipids were dissolved by incubating the lipid solutions at 37° C. for 20 minutes. The DOPE solutions were centrifuged at 17000 G for 1 h and the DOPE concentration was measured in the supernatant by HPLC. The DOTMA/DOPE solutions were filtered through a 0.22 μm PES syringe filter and the lipid concentration was measured in the filtrate by HPLC.
Lipid concentration in the different liposome formulations were measured by HPLC (Agilent technologies. Santa Clara. USA) using a Sunfire C18 2.5 μm 4.6×75 mm column (Waters, Massachusetts USA) and a wave length of 205 nm. Mobile phase A was a mixture of 70% methanol/30% isopropanol/0.1% TFA, mobile phase B was a mixture of 55% methanol/15% isopropanol/30% water/0.1% TFA. Liposomes samples were or not diluted with water to 3 mM total lipid concentration.
It has been tested if DOPE-containing solutions of higher concentration can be prepared (in the supersaturated state) and used for ethanol injection for liposome manufacturing (next section).

Data set [2] can be described thus: Freezing of RNA lipoplexes with cryoprotectants and NaCl, particle size. It counts as physicochemical. As to conditions: for preservation of particle size: single freezing step, 0 to 60 mM NaCl, 20% (w/v) cryoprotectant.
Description: Methods: Different compounds representative for monosaccharides (glucose and sorbitol), disaccharides (sucrose and trehalose), amino acids (arginine, prolin), triols (glycerin) as well as cryoprotectant systems containing mixtures of different sugars (mannitol and sucrose) were investigated in order to identify suited cryoprotectants (FIGS. 25 and 26). Therefore RNA lipoplexes were frozen in the presence of increasing concentration of these compounds. In order to identify minimum content of cryoprotectant at a certain concentration of NaCl, RNA lipoplexes were frozen in the presence of increasing amounts of sucrose or trehalose as representative cryoprotectants (Table 7). The samples were initially frozen a single time in order to determine the concentration range of cryoprotectant to be investigated in detail. In a third experiment, the efficacy of stabilization of the particle size was challenged by freezing of the RNA lipoplexes up to 10 times in the presence of the cryoprotectant trehalose (Table 8).
Data set [3] in a line: Buffer, pH, NaCl and sucrose stability studies at +25° C. and −15° C. (PCS, pH, capillary electrophoresis). As to conditions: for stability of the RNA in RNA lipoplexes: Example 2.1, accelerated conditions (25°); for preservation of the particle size and the polydispersity: Example 2.1, frozen state (−15° C.). As to the method:
RNA lipoplexes are incubated under accelerated conditions (25° C.) in the presence of an exemplarily cryoprotectant. RNA integrity was analyzed by capillary electrophoresis over 60 days. Additionally, RNA lipoplexes are incubated under at the anticipated storage conditions (−15° C.) in the presence of an exemplarily cryoprotectant for up to two years. RNA integrity was analyzed by capillary electrophoresis.
The respective RNA lipoplexes were investigated under accelerated conditions (25° C.) and in the frozen state (−15° C.).
RNA lipoplexes were formed with liposomes containing 2 mM of acetic acid. The respective RNA lipoplexes were investigated under accelerated conditions (25° C.) and in the frozen state (−15° C.).
Method: All RNA lipoplexes were automatically prepared in a single batch and the different concentrations of HEPES were adjusted by the addition of a cryoprotectant solution containing different amounts of HEPES. Particle sizes and polydispersity of RNA lipolexes were analyzed by photon correlation spectroscopy (PCS) measurements. Additionally, the RNA integrity was analyzed by capillary electrophoresis and the pH was measured.
In the following study, the concentration of HEPES which is required for stabilization of the pH of the RNA lipoplexes was investigated. RNA lipoplexes were formed with liposomes containing 5 mM of acetic acid and different concentrations of HEPES were adjusted by using different cryoprotectant solutions and the respective RNA lipoplexes were investigated under accelerated conditions (25° C.). The pH range from pH 6.2 to 7.2 was tested.
Methods: As a representative cryoprotectant, sucrose was investigated at a concentration of 10% (w/v). A detailed description of the experiments is given in section 2.
In the following study, the long-term stability of RNA lipoplexes in the frozen state was investigated with the combination of the reduced concentration of NaCl and Sucrose in the presence of either HEPES or Histidine as a buffering agent at a pH of 6.5.

A short description of data set [4]: RNA integrity of RNA lipoplexes under stress conditions (40° C.), capillary electrophoresis. As to conditions: 21 days, absence of cryoprotectant, by buffering system.
Method: RNA lipoplexes are initially incubated under stress conditions (40° C.) in the absence of cryoprotectant. RNA integrity was analyzed by capillary electrophoresis over 21 days. In order to investigate the optimum pH range in the presence of an exemplary cryoprotectant, RNA lipoplexes were incubated in the presence of HEPES and sucrose at 40° C. and RNA integrity was analyzed for 21 days.
RNA integrity was analyzed as a key physicochemical parameter over 21 days.
The procedure of data set [5]: The samples were frozen at −30° C. and then transferred to the respective temperature for long-term storage (either −15 or −30° C.). After defined storage time, samples were analyzed and preservation of the colloidal stability was analyzed by measuring the particle size using PCS. These experiments were performed at a total RNA concentration of 0.05 mg/mL.
Method: To investigate the minimum content of representative cryoprotectants as sucrose, trehalose, glucose and mixtures including dextran required for long-term storage at −20° C., RNA lipoplexes were frozen at a fixed cryoprotectant content in combination with varying NaCl concentrations. For monomeric or dimeric molecular cryoprotectants as glucose, sucrose, and trehalose a concentration of 22% (w/v) was adjusted. These formulations were frozen and stored at −15 to −40° C. and long-term stability was investigated by measuring the particle size using PCS after defined storage time.
The samples were frozen and stored at −20° C. After defined storage time, samples were analyzed and preservation of the colloidal stability was analyzed by measuring the particle size.

The mark [6] stands for this setting: compound tested as cryoprotectant.
[7] abbreviates: Example 2.2, accelerated conditions (25° C.).
Setting [8] is: Example 2.2, frozen state (−15° C.).
Where [9] appears, read: 70 mM NaCl, up to 10 times freezing.

Molecules are shown by their SMILES. Like-named read-outs stand apart in the source and are kept apart here.

`CCCCCCCC/C=C\CCCCCCCC(=O)OC[C@H](COP(=O)(O)OCCN)OC(=O)CCCCCCC/C=C\CCCCCCCC` [DOPE, 1,2-di-(9Z-octadecenoyl)-sn-glycero-3-phosphoethanolamine]: the “DOPE solubility in ethanol comprising 220 mM DOTMA, mM after Filtration” value in data set [1] (Corden Pharma, F0624) is listed as 93 mM; in data set [1] (Corden Pharma, W0650) it was 106 mM; in data set [1] (Merck, MK2885-C), 94 mM; in data set [1] (NOF, 14099612) it was 103 mM. In addition, the “DOPE solubility in ethanol” value in data set [1] (Provider Corden Pharma, Charge Nr. F0624) is recorded as 56 mM; in data set [1] (Provider Corden Pharma, Charge Nr. W0650), 59 mM; in data set [1] (Provider Merck, Charge Nr. MK2885-C) it was 59 mM; in data set [1] (Provider NOF, Charge Nr. 14099612) it was 63 mM.
As for `OCC(O)CO` [Glycerin, glycerin], in data set [2] (setting [6]), the “stabilization of RNA lipoplexes during freezing” value is given as “can be used as cryoprotectants”.
With `O=S(=O)(O)CCN1CCN(CCO)CC1` [HEPES, 2-[4-(2-hydroxyethyl)piperazin-1-yl]ethanesulfonic acid], the “HEPES concentration sufficient for stabilization of the adjusted pH” value in data set [3] (25° C.) was no less than 2.5 mM. Besides, in data set [3], the “stability of the RNA in RNA lipoplexes” value is recorded as “best stability”; the “preservation of the particle size and the polydispersity” value was “equally suited”. In addition, the “stabilization of the RNA integrity” value in data set [3] (setting [7]) is listed as “comparable stabilization of the RNA integrity”. In addition, the “stabilization of the RNA integrity” value in data set [3] (setting [8]) was “comparable stabilization of the RNA integrity”. For the same compound, the RNA integrity entry in data set [3] (Example 4.1, accelerated +25° C., vs current formulation 20 mM NaCl and 22% sucrose) was “better preserved”.
On to `N[C@@H](Cc1c[nH]cn1)C(=O)O` [Histidine, histidine], for which, in data set [3], the “stability of the RNA in RNA lipoplexes” value was “lower stability”; the “preservation of the particle size and the polydispersity” value is “equally suited”. In addition, the “stabilization of the RNA integrity” value in data set [3] (setting [7]) is “slightly reduced stability”. Further, in data set [3] (setting [8]), the “stabilization of the RNA integrity” value is “comparable stabilization of the RNA integrity”.
`O=S(=O)(O)CCN1CCOCC1` [MES, 2-(N-morpholino)ethanesulfonic acid]: in data set [3], the “stabilization of the RNA integrity” value is listed as “comparable stabilization of the RNA integrity”.
In the case of `N=C(N)NCCC[C@H](N)C(=O)O` [arginine], the “stabilization of RNA lipoplexes during freezing” value in data set [2] (setting [6]) is given as “clearly destabilizes the RNA lipoplexes”.
Turning to `O=C([O-])[O-].[Na+].[Na+]` [carbonate, sodium carbonate], the “stabilization of the RNA (RNA integrity)” value in data set [4] is listed as “did not result in comparable stabilization of the RNA”.
For `O=C(O)[C@@H]1CCCN1` [proline], the “stabilization of RNA lipoplexes during freezing” value in data set [2] is on record as “can be used as cryoprotectants”.
In the case of `O=P(O)(O)O` [sodium phosphate], the “stabilization of the RNA (RNA integrity)” value in data set [4] is listed as “comparable results”.
On to `OC[C@@H](O)[C@@H](O)[C@H](O)[C@@H](O)CO` [sorbitol], for which, in data set [2] (setting [6]), the “stabilization of RNA lipoplexes during freezing” value is “can be used as cryoprotectants”. For the same compound, the “stabilization efficacy compared with the other cryoprotectants” value in data set [2] (freezing) was “lower”.
In the case of `OC[C@H]1O[C@@](CO)(O[C@H]2O[C@H](CO)[C@@H](O)[C@H](O)[C@H]2O)[C@@H](O)[C@@H]1O` [sucrose], in data set [2], the “preservation of particle size” value is reported as “acceptable preservation of particle size”. Besides, the “stabilization efficacy between cryoprotectants” value in data set [5] is given as “No difference”.
`OC[C@H]1O[C@H](O[C@H]2O[C@H](CO)[C@@H](O)[C@H](O)[C@H]2O)[C@H](O)[C@@H](O)[C@@H]1O` [trehalose]: in data set [2] (50 mM NaCl, even after 10 times freezing), the “trehalose sufficient for stabilization of particle characteristics” value is reported as no less than 12.5%. In data set [2] (setting [9]), the “trehalose required for exact preservation of the particle size” value is listed as no less than 22.5%. Besides, the “trehalose required for minimum stabilization” value is recorded as no less than 12.5% in data set [2] (setting [9]) and no less than 15.0% in data set [2] (90 mM NaCl, up to 10 times freezing). For the same compound, in data set [2] (90 mM NaCl, highest investigated concentration 27.5%), the “exact preservation of the particle size” value is “could not be achieved”. In addition, the “preservation of particle size” value in data set [2] is recorded as “acceptable preservation of particle size”. Moreover, in data set [5], the “stabilization efficacy between cryoprotectants” value is given as “No difference”.
